Values of other authors as cited in US8471030B2, “Purification of montelukast using simulated moving bed” (Orochem Technologies Inc., priority 2010, dated 2013).

- stability in acidic solutions (acidic solutions): degrade rapidly
- stability in solution when exposed to light (in solution, exposed to light, forms the Montelukast-cis isomer): unstable when exposed to light
Compound: CC(C)(O)c1ccccc1CC[C@@H](SCC1(CC(=O)O)CC1)c1cccc(/C=C/c2ccc3ccc(Cl)cc3n2)c1 [Montelukast]
